Laboratory results from article PMC10017518, “Structural basis for bacterial energy extraction from atmospheric hydrogen” (Nature, 2023).
Blank lines part the entries; values can stand above or below the molecule they belong to.

Assays:
Huc = target: T1, Huc (Mycolicibacterium smegmatis, UniProt A0QUM6+A0QUM7); assay: H2 electrode and gas chromatography of H2 consumption; type: biochemical; conditions: H2 as donor, 50 mM Tris, 150 mM NaCl, pH 8.0
T1 construct: gene hybA; native host purification, chromosomal N-terminal 2×StrepII tag on HucS, tag kept; 833 kDa oligomer of four HucS2L2 lobes on a HucM tetramer; HucL ~58, HucS ~39, HucM ~18 kDa; with Group 2a [NiFe] hydrogenase large subunit HucL; Huc scaffold and stalk protein HucM
T1 sequence (A0QUM6 2-323): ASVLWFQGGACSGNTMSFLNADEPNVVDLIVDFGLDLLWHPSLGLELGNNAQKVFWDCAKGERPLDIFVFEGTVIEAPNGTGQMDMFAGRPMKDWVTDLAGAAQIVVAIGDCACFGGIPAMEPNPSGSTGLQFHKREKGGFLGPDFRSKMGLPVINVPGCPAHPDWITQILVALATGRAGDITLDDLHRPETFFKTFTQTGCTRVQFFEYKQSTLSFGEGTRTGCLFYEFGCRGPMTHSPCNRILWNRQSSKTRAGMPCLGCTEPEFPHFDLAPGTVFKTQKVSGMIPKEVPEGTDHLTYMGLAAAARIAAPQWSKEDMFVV
T1 sequence (A0QUM7 2-516): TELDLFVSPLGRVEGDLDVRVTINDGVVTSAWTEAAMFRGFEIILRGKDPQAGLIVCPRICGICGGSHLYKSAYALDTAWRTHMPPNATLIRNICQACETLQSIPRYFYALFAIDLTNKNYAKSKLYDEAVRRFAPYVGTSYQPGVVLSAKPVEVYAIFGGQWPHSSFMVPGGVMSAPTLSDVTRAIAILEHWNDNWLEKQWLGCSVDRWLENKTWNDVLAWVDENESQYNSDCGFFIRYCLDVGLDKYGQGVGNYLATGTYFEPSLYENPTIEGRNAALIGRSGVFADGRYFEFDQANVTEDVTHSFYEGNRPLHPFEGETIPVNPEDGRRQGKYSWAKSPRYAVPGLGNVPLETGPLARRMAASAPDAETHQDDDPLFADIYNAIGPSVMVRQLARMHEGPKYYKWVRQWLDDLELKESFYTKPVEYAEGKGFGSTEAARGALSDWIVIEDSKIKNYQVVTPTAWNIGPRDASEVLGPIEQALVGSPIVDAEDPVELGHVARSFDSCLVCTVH
T1 sequence (A0QUM5 1-189 partner): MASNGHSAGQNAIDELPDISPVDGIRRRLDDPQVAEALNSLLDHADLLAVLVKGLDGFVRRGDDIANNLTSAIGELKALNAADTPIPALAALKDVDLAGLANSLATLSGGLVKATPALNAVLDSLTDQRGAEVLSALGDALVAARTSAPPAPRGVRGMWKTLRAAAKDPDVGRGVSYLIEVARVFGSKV

[1] = target: Huc protomer (HucSL heterodimer) (Mycobacterium smegmatis mc2155); assay: cryo-EM structure; single-particle reconstruction of the purified Huc oligomer (2.19 Å overall) and of the individual HucS2L2 lobe (1.52 Å and 1.67 Å)
[2] = target: the molecule itself; assay: as above

Molecule: CC1=CC(=O)c2ccccc2C1=O [menadione]
- H2 electrode and gas chromatography of H2 consumption (Huc; 200 µM menadione as electron acceptor): Huc displayed a much higher maximum velocity with menadione

Molecule: COc1cc(-c2ccc(-n3nc(-c4ccccc4)n[n+]3-c3ccc([N+](=O)[O-])cc3)c(OC)c2)ccc1-n1nc(-c2ccccc2)n[n+]1-c1ccc([N+](=O)[O-])cc1 [nitro blue tetrazolium]
- H2 electrode and gas chromatography of H2 consumption (Huc; 200 µM NBT as electron acceptor): using nitro blue tetrazolium (NBT) or the quinone analogue menadione as the electron acceptor

- stoichiometry N [1]: 2
Molecule: Huc protomer (HucSL heterodimer) (complex)

B1: HucM (MSMEG_2261), scaffold subunit of the Mycobacterium smegmatis hydrogenase Huc (natural protein, Mycobacterium smegmatis mc2155, UniProt A0QUM5 1-189, looked up)
chain: MASNGHSAGQNAIDELPDISPVDGIRRRLDDPQVAEALNSLLDHADLLAVLVKGLDGFVRRGDDIANNLTSAIGELKALNAADTPIPALAALKDVDLAGLANSLATLSGGLVKATPALNAVLDSLTDQRGAEVLSALGDALVAARTSAPPAPRGVRGMWKTLRAAAKDPDVGRGVSYLIEVARVFGSKV
notes: HucM, uncharacterized protein MSMEG_2261 encoded directly upstream of hucS in the huc operon, Mycobacterium smegmatis mc2155; approximately 18 kDa; 188 amino acids printed (residues 80 to 189 are also printed); only residues 20-79 modelled in the cryo-EM map; source: M. smegmatis mc2155 PRC1 HucS-2×StrII, endogenous; in cell lysate and co-purified with HucS (StrepTrap, Superose 6)
- stoichiometry N [2]: 4
